Test results as given in patent US11571484B2, “Compositions that target tumor-associated macrophages and methods of use therefor” (Sanford Burnham Prebys Medical Discovery Institute, priority 2017, dated 2023).
“And” between values parts separate entries of the source, which are not always exact repeats. Equal entries are not always repeated. Ends that are not written are not given here. FAM = 5(6)-carboxyfluorescein; Ahx = NCCCCCC(=O)O

Assays:
[1] = system: peritoneal cells (CCR2+ macrophages) of 4T1 tumor-bearing mice; assay: Flow cytometry of FAM-peptide binding to peritoneal cells from 4T1 tumor mice; format: cell-based, mouse
Experimental: A, Change in fluorescence anisotropy of FAM-UNO (dotted line) and FAM-UNO in DTT (solid line) while incubating with mouse recombinant CD206. B, Change in fluorescence anisotropy of FAM-CSPGAK with mouse recombinant CD206 (solid line) or with CD163 (dotted line) and of FAM-CPMTDNE (control) with CD206 (dashed line). C, FAM-UNO binds selectively to CCR2^+ macrophages collected from the peritoneal cavity of 4T1 tumor-bearing mice, as 94.3% of FAM^+ cells are CCR2^+ cells. The analysis was done gating for the FAM^+ population (left panel). In these 4T1 tumor bearing mice, 58% of peritoneal cells are macrophages, i.e. CCR2^+ cells (right panel). D, FAM-UNO binding to peritoneal cells is inhibited by preincubating with 10 µg/mL of anti-CD206, whereas the preincubation with anti CD206 antibody had no effect on FAM-LyP-1 binding. In panels A and D are shown representative graphs from three independent experiments. In panels c and d are shown results from three independent experiments (n=3 mice) and bars of panel D represents mean+SEM.
Peritoneal cells were extracted from Balb/c mice 2 weeks after inoculation of 10^6 cells orthotopically). Mice were anesthetized and intraperitoneally injected with 5 mL of PBS+1% BSA, the abdomen was massaged to detach macrophages and the peritoneal fluid was collected. This procedure typically yielded 5-9×10^6 cells. Cells were concentrated to 1 mL in the same peritoneal fluid. For FAM-peptide incubation, the peptides were incubated for 30 minutes at 4° C. For antibody incubation the cells were incubated with antibody for 1 h at 4° C. A647 Rat anti-CCR2 (Biolegend, CA, USA. Catalog number 150603) was incubated for 1 h at 4° C. at a dilution of 1/200. FAM-peptides were incubated at a concentration of 0.5 μg/mL, and Rat anti-CD206 (Bio-Rad, CA, USA. Product code MCA2235GA) was incubated at a concentration of 10 μg/mL. Binding of FAM-peptides was monitored with 488 nm channel and CCR2 labeling was assessed in the 647 nm channel using A647 Anti-CCR2 (Biolegend, CA, USA). After incubation of FAM-Peptides or antibodies, the cells were washed 3 times at 4° C. with PBS-Tby centrifugation at 250 g for 6 minutes, followed by flow cytometry analysis (Accuri, BD Biosciences, CA, USA).

[2] = target: T1, recombinant mouse CD163 (Mus musculus, UniProt Q2VLH6); assay: Fluorescence anisotropy assay with recombinant CD163; format: binding; conditions: 50 nM FAM peptide, 1 μM protein, 25 °C
T1 construct: purchased R&D Systems 7435-CD-050
T1 sequence (Q2VLH6 39-1121): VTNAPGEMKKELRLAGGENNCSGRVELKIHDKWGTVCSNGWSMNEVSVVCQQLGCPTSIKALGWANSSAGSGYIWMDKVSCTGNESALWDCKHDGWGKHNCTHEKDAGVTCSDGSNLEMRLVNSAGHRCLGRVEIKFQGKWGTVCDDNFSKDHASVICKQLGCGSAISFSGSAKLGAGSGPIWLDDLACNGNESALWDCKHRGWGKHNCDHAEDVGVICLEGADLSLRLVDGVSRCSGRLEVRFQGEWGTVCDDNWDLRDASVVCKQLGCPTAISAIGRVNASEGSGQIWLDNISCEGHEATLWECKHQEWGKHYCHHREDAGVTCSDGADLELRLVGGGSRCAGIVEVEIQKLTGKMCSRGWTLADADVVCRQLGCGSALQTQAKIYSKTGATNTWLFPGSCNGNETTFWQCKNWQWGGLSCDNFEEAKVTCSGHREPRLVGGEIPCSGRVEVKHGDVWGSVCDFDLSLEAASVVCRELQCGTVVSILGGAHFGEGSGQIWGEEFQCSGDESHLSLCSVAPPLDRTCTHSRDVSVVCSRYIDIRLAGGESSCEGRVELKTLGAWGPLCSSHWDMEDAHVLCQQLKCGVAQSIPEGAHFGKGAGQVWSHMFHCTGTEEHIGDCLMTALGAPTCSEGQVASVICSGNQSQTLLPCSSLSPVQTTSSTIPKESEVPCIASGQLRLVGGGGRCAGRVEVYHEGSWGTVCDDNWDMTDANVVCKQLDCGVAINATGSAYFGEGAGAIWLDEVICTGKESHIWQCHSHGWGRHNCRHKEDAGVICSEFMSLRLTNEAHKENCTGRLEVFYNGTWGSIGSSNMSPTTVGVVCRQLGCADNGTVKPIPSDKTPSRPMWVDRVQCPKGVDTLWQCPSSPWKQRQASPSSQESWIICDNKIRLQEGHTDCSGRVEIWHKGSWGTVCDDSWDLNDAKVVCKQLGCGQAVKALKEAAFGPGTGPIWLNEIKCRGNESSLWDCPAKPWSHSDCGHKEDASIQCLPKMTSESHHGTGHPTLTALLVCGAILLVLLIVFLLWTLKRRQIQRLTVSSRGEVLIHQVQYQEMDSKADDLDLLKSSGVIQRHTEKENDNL
Experimental: The recombinant mouse macrophage mannose receptor rmMMR/CD206 (R&D Systems, catalog number: 2535-MM-050) and recombinant mouse CD163 (R&D Systems, catalog number: 7435-CD-050) were reconstituted at 1 mg/ml in IB, aliquoted and stored at −20° C. To generate linearized version of cyclic FAM-UNO peptide, the peptide at 1 mM concentration was preincubated for 24 h at room temperature in a dark place with 3 mM DTT and diluted with IB 2×10^5 times before the FA assay. The control experiment with FAM-CPMTDNE peptide (FIG. 22) was performed to rule out the possibility of disulphide bond formation, which could affect the binding properties of linear peptides. […]
Fluorescence anisotropy was also carried out using recombinant human macrophage mannose receptor rhMMR/CD206 to determine whether UNO peptide interactions with mouse CD206 carried over to human CD206. […]
In all experiments, FA signal measurements were done under pseudo first-order conditions with 50 nM singly labelled FAM peptides and 1 μM proteins. […] Assays were carried out in kinetic mode in a total volume of 30 μl at 25° C. on the PHERAstar (BMG Labtech, Germany) microplate reader using an optical module with excitation and emission filters of 485 nm (slit 10 nm) and 520 nm (slit 10 nm), respectively. […] FA signals at time t after initiation of binding reaction was calculated as parameters r(t) from the equation: […]

Substance	cells gated for CCR2+ that were positive for FAM-UNO binding ([1]; 0.5 μg/mL peptide, 30 min, 4 °C)	reduction of binding to peritoneal cells by pre-incubation with anti-CD206 antibody ([1]; anti-CD206 10 μg/mL)	FAM+ cells that are CCR2+ cells (macrophages) ([1]; gated for the FAM+ population, 0.5 μg/mL peptide, 30 min, 4 °C)	change in fluorescence anisotropy with CD163 [2]
FAM-UNO: FAM-labeled UNO peptide CSPGAKVRC (SEQ ID NO: 1); 5(6)-carboxyfluorescein with 6-aminohexanoic acid spacer at the N-terminus ({FAM-Ahx}-CSPGAKVRC; cysteine pairing not given here)	94%	25%	94.3% and 95%	
FAM-CSPGAK: FAM-labeled linear CSPGAK (SEQ ID NO: 6) (not fully specified; FAM label)				no change in anisotropy
